The values below come from ChEMBL document CHEMBL1201862, “PubChem BioAssay data set” (2004).

SMILES strings stand for the structures. Active and inactive are the calls of the source. A value given as a limit tells only on which side of the number the result lay.

In one test the target is Fatty acid synthase (Homo sapiens, UniProt P49327). In words: FAS thioesterase domain inhibitors, dose response, biochemical, kinetic fluorescence intensity (AID 624326).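 Further: rate of fluorescence rise from hydrolysis of a fluorogenic O-methyl fluorescein ester substrate.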 The format is functional.
Another test is described as follows: cells. The format is functional.
The nature of test [1]: growth suppression of PTEN-null colon cells, dose response, cell-based, HCT116 PTEN knockout (AID 1047).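 Further: HCT116 colon tumor cells with PTEN knocked out; cells exposed to compound for 60 hours before readout; potency for loss of cell viability measured by luminescence.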 It counts as functional.
Test [2] in a line: growth suppression of beta-catenin-knockout colon cells, dose response, cell-based, HCT116, human colon tumor (AID 1045).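 Further: HCT116 colon tumor cells with beta catenin knocked out; cells exposed to compound for 60 hours.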 The format is functional.
Another test has as its target T1, Estrogen receptor (Homo sapiens, UniProt P03372).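 Further: potency for inhibiting coactivator peptide recruitment to the receptor.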
T1 sequence (P03372 whole entry): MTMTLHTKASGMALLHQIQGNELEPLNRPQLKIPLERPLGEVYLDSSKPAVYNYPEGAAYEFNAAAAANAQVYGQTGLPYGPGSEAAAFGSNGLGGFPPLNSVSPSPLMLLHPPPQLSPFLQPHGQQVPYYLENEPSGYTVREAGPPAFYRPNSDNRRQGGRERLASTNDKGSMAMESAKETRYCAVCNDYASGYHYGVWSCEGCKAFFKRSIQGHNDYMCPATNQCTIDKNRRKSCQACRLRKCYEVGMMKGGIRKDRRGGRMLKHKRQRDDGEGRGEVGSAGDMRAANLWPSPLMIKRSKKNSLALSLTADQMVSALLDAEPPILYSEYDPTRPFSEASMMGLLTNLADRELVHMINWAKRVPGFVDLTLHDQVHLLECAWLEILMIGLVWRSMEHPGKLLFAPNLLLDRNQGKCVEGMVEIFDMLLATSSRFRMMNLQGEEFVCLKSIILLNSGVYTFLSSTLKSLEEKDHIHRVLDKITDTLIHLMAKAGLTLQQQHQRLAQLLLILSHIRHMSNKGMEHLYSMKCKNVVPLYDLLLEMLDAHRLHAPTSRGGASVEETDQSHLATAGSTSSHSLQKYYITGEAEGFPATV

Test [3] in a line: P. falciparum Dd2 growth inhibitors, dose response, SYBR Green, cherry-picked samples (AID 1159567). The format is functional, cell-based.
The nature of test [4]: inhibitors of firefly luciferase expression or activity, dose response, H4 neuroglioma cells, luminescence (AID 1990). It counts as functional, cell-based.
A short description of test [5]: Luminescence Cell-Based Dose Response HTS to Identify Inhibitors of 5'UTR Stem-Loop Driven Prion Protein mRNA Translation in H4 Neuroglioblastoma Cells. [Related pubchem assays: 1827 (Project Summary), 1813 (Primary HTS)]. It counts as functional.
Test [6] is described as follows: inhibitors of SNCA 5'UTR-driven reporter translation, confirmation, H4 neuroglioma cells, luminescence (AID 1988). The format is functional, cell-based.
A short description of test [7]: inhibitors of HIV Env-driven cell fusion, dose response, cherry-pick (AID 652057). It counts as functional, cell-based.
Test [8] is described as follows: inhibitors of clade B AD8 Env fusion, dose response, cell-based, cherry-pick (AID 652062).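 Further: luciferase signal from cell-cell fusion driven by HIV-1 clade B AD8 Env; potency is for inhibitors of fusion seen as a drop in luminescence.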 It counts as functional.
A short description of test [9]: NIH-3T3 fibroblast cytotoxicity, dose response, cytotoxicity control, cell-based, fluorescence, Alamar Blue, secondary assay (AID 2327).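 Further: NIH-3T3 mouse fibroblasts cultured with fluconazole at 8 µg/mL.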 The format is functional.
Test [10] is described as follows: C. albicans growth with fluconazole, confirmation, fluorescence, retest (AID 2467). The format is functional, cell-based.
Test [11] deals with T2, Replicative DNA helicase DnaB (Mycobacterium tuberculosis, UniProt P9WMR3).
T2 sequence (P9WMR3 whole entry): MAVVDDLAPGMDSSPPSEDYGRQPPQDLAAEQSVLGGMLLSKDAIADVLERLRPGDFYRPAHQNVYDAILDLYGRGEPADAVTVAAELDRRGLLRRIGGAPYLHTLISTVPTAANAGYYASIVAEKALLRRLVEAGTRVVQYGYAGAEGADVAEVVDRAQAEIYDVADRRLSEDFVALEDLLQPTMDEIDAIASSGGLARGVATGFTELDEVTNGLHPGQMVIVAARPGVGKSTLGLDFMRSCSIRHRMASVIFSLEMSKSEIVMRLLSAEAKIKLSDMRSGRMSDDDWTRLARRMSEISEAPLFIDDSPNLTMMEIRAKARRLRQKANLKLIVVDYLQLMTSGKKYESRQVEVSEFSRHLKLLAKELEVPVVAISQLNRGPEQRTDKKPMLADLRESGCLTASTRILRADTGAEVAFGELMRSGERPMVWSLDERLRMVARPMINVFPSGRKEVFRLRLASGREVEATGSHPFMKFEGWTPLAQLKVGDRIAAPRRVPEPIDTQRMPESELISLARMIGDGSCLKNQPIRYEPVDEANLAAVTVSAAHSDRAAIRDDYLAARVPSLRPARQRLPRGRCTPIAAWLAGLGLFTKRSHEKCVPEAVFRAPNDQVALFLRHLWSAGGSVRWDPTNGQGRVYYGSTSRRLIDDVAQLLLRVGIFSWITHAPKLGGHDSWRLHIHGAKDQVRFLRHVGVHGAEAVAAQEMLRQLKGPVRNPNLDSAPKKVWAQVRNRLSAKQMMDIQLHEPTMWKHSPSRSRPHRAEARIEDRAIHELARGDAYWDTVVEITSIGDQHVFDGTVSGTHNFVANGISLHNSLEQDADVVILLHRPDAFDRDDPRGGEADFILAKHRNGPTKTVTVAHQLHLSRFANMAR
Description: DnaB intein splicing inhibitors, dose response, biochemical, cell-free fluorescence (AID 449749). The format is functional.

The next test has as its target T3, Protein RecA (Mycobacterium tuberculosis, UniProt P9WHJ3).
T3 sequence (P9WHJ3 whole entry): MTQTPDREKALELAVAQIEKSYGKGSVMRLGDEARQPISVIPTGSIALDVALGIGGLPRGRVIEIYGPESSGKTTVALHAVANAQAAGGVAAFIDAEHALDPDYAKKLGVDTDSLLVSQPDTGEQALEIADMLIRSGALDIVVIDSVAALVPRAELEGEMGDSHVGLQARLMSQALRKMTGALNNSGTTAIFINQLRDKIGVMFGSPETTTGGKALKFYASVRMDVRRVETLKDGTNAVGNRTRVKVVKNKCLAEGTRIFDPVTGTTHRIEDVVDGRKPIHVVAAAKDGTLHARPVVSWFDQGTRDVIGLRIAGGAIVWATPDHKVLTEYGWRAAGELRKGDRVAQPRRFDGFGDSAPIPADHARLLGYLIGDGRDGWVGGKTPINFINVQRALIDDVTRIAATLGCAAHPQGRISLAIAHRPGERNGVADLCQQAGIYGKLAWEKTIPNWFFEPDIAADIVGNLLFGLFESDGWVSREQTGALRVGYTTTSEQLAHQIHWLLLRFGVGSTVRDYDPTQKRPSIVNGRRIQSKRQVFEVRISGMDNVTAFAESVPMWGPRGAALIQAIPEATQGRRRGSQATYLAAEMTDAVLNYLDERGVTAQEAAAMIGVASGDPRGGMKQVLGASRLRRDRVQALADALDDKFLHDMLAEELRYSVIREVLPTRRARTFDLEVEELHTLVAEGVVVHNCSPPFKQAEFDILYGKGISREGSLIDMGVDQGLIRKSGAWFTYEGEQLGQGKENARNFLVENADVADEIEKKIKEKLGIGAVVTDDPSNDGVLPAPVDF
In words: Fluorescence Cell-Free Homogeneous Dose Retest to Identify Inhibitors of RecA-Intein Splicing Activity. [Related pubchem assays (depositor defined):AID2097, AID2223, AID489010, AID492950]. The format is functional.

Test [12] in a line: inhibitors of intracellular T. cruzi replication, confirmation, NIH3T3 host cells, beta-gal luminescence (AID 2044).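 Further: intracellular parasites grown in NIH/3T3 mouse fibroblasts as host cells; luminescent beta-galactosidase reporter signal from transgenic T. cruzi replicating inside host cells; inhibitors lower the luminescence signal.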 The format is functional, cell-based.
Test [13] in a line: cytotoxicity toward NIH3T3 fibroblasts, dose response, counter-screen, cell-based, ATP luminescence, mouse fibroblasts (AID 2010).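 Further: cells exposed to compound for about 90 hours before reading.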 It counts as functional.

Chain of Fatty acid synthase (P49327 whole entry, the tested form may be a part): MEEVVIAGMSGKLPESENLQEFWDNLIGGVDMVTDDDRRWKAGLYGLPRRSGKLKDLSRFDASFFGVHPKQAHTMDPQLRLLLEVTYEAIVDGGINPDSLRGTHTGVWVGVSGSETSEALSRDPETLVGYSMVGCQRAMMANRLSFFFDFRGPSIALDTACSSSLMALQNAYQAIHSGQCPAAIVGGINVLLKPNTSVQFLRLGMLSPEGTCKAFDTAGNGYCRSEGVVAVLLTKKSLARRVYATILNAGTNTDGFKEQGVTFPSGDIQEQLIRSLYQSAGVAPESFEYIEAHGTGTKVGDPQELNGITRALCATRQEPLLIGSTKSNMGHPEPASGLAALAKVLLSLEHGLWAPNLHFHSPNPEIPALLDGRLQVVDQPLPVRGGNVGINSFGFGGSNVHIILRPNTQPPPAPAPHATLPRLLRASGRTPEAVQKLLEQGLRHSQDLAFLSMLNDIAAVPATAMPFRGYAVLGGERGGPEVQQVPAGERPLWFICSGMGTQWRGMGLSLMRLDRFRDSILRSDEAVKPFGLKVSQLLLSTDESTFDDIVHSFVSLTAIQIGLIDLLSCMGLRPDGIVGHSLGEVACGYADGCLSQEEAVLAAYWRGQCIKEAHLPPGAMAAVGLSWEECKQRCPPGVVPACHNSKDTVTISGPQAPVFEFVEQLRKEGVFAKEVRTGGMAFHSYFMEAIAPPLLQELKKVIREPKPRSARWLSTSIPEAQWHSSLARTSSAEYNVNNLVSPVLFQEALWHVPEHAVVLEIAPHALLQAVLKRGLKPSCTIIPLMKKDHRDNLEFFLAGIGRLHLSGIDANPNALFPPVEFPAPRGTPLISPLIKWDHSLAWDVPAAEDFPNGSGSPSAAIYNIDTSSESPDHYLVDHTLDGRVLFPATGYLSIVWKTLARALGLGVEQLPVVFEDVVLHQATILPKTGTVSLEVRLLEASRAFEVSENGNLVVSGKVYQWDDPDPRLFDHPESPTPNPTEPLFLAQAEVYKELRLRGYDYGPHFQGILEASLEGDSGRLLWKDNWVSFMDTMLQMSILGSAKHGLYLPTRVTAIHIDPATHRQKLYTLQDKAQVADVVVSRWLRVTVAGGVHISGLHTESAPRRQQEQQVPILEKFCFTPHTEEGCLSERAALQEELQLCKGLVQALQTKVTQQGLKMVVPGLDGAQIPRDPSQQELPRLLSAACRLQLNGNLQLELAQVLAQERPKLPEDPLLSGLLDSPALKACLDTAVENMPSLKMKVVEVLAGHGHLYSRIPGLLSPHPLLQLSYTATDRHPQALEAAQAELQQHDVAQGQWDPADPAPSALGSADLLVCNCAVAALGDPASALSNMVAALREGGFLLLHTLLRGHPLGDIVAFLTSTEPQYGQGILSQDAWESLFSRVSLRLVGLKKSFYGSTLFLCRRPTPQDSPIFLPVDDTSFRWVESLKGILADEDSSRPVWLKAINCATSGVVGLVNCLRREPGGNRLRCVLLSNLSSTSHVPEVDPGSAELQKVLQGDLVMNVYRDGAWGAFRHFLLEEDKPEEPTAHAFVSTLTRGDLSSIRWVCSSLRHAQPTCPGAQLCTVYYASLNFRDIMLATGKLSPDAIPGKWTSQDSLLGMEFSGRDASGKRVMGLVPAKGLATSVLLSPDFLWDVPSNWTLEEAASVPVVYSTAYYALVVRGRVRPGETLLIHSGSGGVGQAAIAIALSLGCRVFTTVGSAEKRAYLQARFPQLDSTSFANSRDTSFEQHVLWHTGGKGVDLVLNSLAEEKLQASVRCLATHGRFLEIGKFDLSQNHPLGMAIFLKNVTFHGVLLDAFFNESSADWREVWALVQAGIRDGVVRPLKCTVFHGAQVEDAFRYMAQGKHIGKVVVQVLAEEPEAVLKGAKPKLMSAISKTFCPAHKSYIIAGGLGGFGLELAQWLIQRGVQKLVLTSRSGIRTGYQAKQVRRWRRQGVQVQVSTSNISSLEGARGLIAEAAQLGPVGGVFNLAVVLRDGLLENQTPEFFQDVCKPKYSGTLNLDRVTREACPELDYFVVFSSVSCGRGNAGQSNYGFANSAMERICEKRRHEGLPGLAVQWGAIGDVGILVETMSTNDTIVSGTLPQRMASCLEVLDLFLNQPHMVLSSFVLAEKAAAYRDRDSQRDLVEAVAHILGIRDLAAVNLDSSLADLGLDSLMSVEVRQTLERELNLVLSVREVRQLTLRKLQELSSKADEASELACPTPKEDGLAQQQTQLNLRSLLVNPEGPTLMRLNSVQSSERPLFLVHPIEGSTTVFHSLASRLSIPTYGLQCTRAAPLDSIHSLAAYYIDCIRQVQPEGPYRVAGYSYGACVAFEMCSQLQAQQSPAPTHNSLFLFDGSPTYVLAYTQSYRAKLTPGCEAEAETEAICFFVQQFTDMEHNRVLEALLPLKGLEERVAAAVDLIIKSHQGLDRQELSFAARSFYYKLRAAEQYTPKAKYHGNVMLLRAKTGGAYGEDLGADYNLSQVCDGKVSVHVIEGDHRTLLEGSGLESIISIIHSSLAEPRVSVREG

Regarding `O=C(COc1ccc2c(-c3ccccc3)cc(=O)oc2c1)N[C@@H](Cc1c[nH]c2ccc(O)cc12)C(=O)O`, the IC50 on Fatty acid synthase was 6.9 µM (active).

As for `Cc1cc(C)n2nc(S(=O)(=O)Nc3c(Cl)cccc3Cl)nc2n1`, the IC50 in “cells” is 5.34 µM (active).

In the case of `COc1ccc(/C=C2\CN(Cc3ccccc3)C/C(=C\c3ccc(OC)cc3)C2=O)cc1`, the EC50 is 6.02 µM (active) in test [1] and 5.52 µM (active) in test [2].

Consider `CSc1nc(NCc2ccco2)c2ccccc2n1`, for which, on Estrogen receptor, the IC50 is recorded as > 50 µM (not active).

Take `O=C(Nc1nnc(SCc2ccccc2Cl)s1)c1cccc([N+](=O)[O-])c1`: the IC50 at Fatty acid synthase is 11 µM (active).

In the case of `CCOc1nc(NCCc2ccc(OC)c(OC)c2)nc(N2CCN(c3ccc(OC)cc3)CC2)n1`, the EC50 in test [1] is 6.42 µM (active); in test [2], 10.5 µM (active).

For the molecule `CCCn1nnc(NC(=O)COc2ccc(CC)cc2)n1`, in the test “cells”, the half-inhibitory concentration (IC50) was 27.6 µM (active).

With `COc1ccc(NC(=O)N(C)C[C@@H]2Oc3cc(-c4ccc(C)cc4)ccc3S(=O)(=O)N([C@@H](C)CO)C[C@H]2C)cc1`, the AC50 in test [3] was 5.06 µM (active).

`O=C1c2ccccc2C(=O)N1CCCCN(C(=O)c1cc2ccccc2oc1=O)c1ccc(F)cc1F`: the EC50 in test [4], in test [5] and in test [6] was > 120 µM (not active) throughout.

Take `CO[C@H]1CN(C)C(=O)c2cc(NC(=O)c3ccccc3F)ccc2OC[C@H](C)N(C)C[C@H]1C`: in test [3], the AC50 was > 39 µM (inactive).

Take `COc1ccccc1-c1ccc2c(c1)O[C@H](CN(C)S(=O)(=O)c1ccc(C)cc1)[C@H](C)CN([C@@H](C)CO)S2(=O)=O`: the values for the AC50 in test [7] and in [8] were 2.84 µM (active) and 2.97 µM (active), respectively.

Turning to `Brc1ccc(-c2nnc(-c3cccnc3)c3conc23)cc1`, at Estrogen receptor, the IC50 is 6.62 µM (active).

On to `CSCCC1NC2(C(=O)Nc3c(C)cc(Cl)cc32)[C@@H]2C(=O)N(C3CCCC3)C(=O)[C@H]12` (some centres undefined), for which the EC50 in test [9] was > 150 µM (inactive); in test [10], > 38 µM (not active).

In the case of `COc1ccc(-c2[nH]nc(C)c2-c2cnn(-c3ccccc3)c2)c(O)c1`, the EC50 in [9] was > 160 µM (inactive); in test [10] it was 3.77 µM (active).

Turning to `CCC(=O)c1ccc(OCC(=O)OCC(=O)N2CCc3ccccc3C2)cc1`, in the test “cells”, the concentration for half-maximal inhibition (IC50) is 17.3 µM (active).

As for `CCOc1ccccc1OCCN1CCC(Cc2ccccc2)CC1`, the EC50 in test [9] was > 150 µM (inactive); in [10], > 38 µM (not active).

Regarding `COc1cccc(NC(=O)c2ccc3nc(C)sc3c2)c1`, the results for the EC50 in [9] and in [10] were > 160 µM (inconclusive) and 1.53 µM (active), respectively.

With `Cc1ccc(-c2nnn(CC(=O)Nc3ccc4nn(-c5ccccc5)nc4c3)n2)o1`, at Estrogen receptor, the IC50 is recorded as > 50 µM (not active).

For `COCC(=O)N1CC2(C1)CN(Cc1ccccc1F)[C@@H](CO)c1[nH]c3cc(OC)ccc3c12`, the AC50 in test [3] was 6.55 µM (active).

As to `O=Nc1c(O)n(Cc2cccc(C(F)(F)F)c2)c2ccccc12`, the EC50 in test [9] is > 160 µM (inactive); in test [10], 1.89 µM (active).

With `O=Cc1ccc(Sc2nnc(-c3ccccc3)o2)c([N+](=O)[O-])c1`, the EC50 in [1] is 21.4 µM (active); in test [2], 18.1 µM (active); at Protein RecA, 5.46 µM (active). For the same molecule, the AC50 in test [11] is 9.51 µM (active).

As to `COc1ccc(-c2ccc([C@@H]3[C@@H](CO)N4CCCCN(C(=O)c5ccc6c(c5)OCO6)C[C@@H]34)cc2)cc1`, the AC50 in test [3] was 5.97 µM (active).

On to `CO[C@@H]1CN(C)C(=O)c2cc(NC(=O)c3ccc(Oc4ccccc4)cc3)ccc2OC[C@H](C)NC[C@@H]1C`, for which, in [3], the AC50 is 5.99 µM (active).

Take `CCS(=O)(=O)N1CCCCN2[C@H](CO)[C@H](c3ccc(-c4cccc(C#N)c4)cc3)[C@@H]2C1`: in [3], the concentration at half-maximal activity (AC50) is 12.5 µM (active).

In the case of `COc1ccc2c3c(n(C)c2c1)[C@@H](CO)N(C(=O)Nc1ccc(F)cc1)CC31CN(C(=O)c2ccccc2F)C1`, the AC50 in test [3] was 4.35 µM (active).

With `CCc1cc(=O)oc2cc(OC(C)C(=O)NCC(O)c3ccccc3)c(Cl)cc12` (centres undefined), the EC50 in [4], in test [5] and in test [6] was > 120 µM (not active) each time.

Take `CCC(=O)Nc1nonc1-c1nc2ccccc2n1N(C(=O)CC)C(=O)CC`: the concentration for half-maximal inhibition (IC50) at Estrogen receptor was > 50 µM (not active).

Take `O=C(NN=C(S)Nc1ccc(Cl)cc1)c1ccccc1OC(F)F`: the EC50 in test [9] is 72.6 µM (active); in [10], 6.72 µM (active).

Take `Fc1ccc(-c2cc3nc(-c4ccccc4)cc(N4CCN(CCN5CCOCC5)CC4)n3n2)cc1`: the EC50 was 4.9 µM (active) in test [12], 71.2 µM (active) in test [1], 7.58 µM (active) in [13] and 85 µM (active) in test [2].

For `O=S(=O)(c1cccc(-c2cn3cccnc3n2)c1)N1CCCCCC1`, the IC50 on Estrogen receptor was 22.3 µM (active).

Turning to `COc1cc(C(=O)O/N=C2/C=CC(=O)C(C)=C2C)cc(OC)c1OC`, the EC50 in test [1] is 18.3 µM (active); in test [2], 19 µM (active).

Regarding `O=C(Nc1nnc(C2=COCCO2)o1)c1ccc(F)cc1`, in the test “cells”, the IC50 was 6.55 µM (active).

In the case of `Cc1cccc(C2c3[nH]c4ccccc4c3CCN2C(=O)c2cc(-c3cccn3C)[nH]n2)n1` (centres undefined), the EC50 in test [9] is > 160 µM (inconclusive); in [10], 3.22 µM (active).
